Results on 19 compounds are retold here after PubChem BioAssay AID1259408 (Genetic Toxicology Data Bank (GENE-TOX), 2018).

Calls of active or inactive are those of the source. How the calls were made is not given here.

The data set deals with GENE-TOX genotoxicity assays, various organisms and cells. Put plainly: GENE-TOX mutagenicity studies. The following applies: for call: Assay Type: In vivo carcinogenicity studies.
[1] abbreviates: Species/Cell Type: Salmonella typhimurium (one or more of the five standard strains: TA98, TA100, TA1535, TA1537, and TA1538), Assay Type: Histidine reverse gene mutation, Ames assay, Assay Code: SALT, Evaluation Type: Evaluation A (Pre-1980).
[2] abbreviates: Species/Cell Type: Chinese hamster lung (V79) cells, Assay Type: Forward gene mutation at the HPRT or ouabain locus, Assay Code: V79+, Evaluation Type: Evaluation A (Pre-1980).
The mark [3] stands for this setting: Species/Cell Type: Human lymphocytes, Assay Type: Sister-chromatid exchange (SCE) in vitro, Assay Code: SCL+D, Dose Response: With dose response, Evaluation Type: Evaluation B (Post-1980).
The mark [4] stands for this setting: Species/Cell Type: Human, Assay Type: Sister-chromatid exchange (SCE) in vitro, Assay Code: SC1+D, Dose Response: With dose response, Evaluation Type: Evaluation B (Post-1980).
Setting [5] is: Species/Cell Type: Nonhuman, Assay Code: CCG+L, Evaluation Type: Evaluation A (Pre-1980).
[6] abbreviates: Species/Cell Type: Salmonella typhimurium (one or more of the five standard strains: TA98, TA100, TA1535, TA1537, and TA1538), Assay Type: Histidine reverse gene mutation, Ames assay, Assay Code: SAL+, Evaluation Type: Evaluation A (Pre-1980).
Where [7] appears, read: Species/Cell Type: Nonhuman, Assay Type: Sister-chromatid exchange (SCE) in vitro, Assay Code: SC2+, Evaluation Type: Evaluation B (Post-1980).
Where [8] appears, read: Species/Cell Type: Nonhuman, Assay Type: Sister-chromatid exchange (SCE) in vivo, Assay Code: SC3+D, Dose Response: With dose response, Evaluation Type: Evaluation B (Post-1980).
The mark [9] stands for this setting: Species/Cell Type: Saccharomyces cerevisiae, Assay Type: Mitotic recombination or gene conversion, Assay Code: YEH-, Evaluation Type: Evaluation A (Pre-1980).

Turning to `CNc1ccc(Cl)cc1C(=O)c1ccccc1`, under setting [1], the mutagenic call is “no conclusion”.

For `Nc1ccc2ccccc2c1N=Nc1ccccc1`, the mutagenic call under setting [1] is recorded as “no conclusion”.

In the case of `CN(C)Cc1cc(Br)ccc1OCC(=O)N/N=C/c1ccccc1`, the mutagenic call (Species/Cell Type: Saccharomyces cerevisiae, Assay Type: Reverse gene mutation, Assay Code: YERT, Evaluation Type: Evaluation A (Pre-1980)) is “no conclusion”.

In the case of `C#C[C@@]1(O)CC[C@@H]2[C@H]3CCC4=CC(=O)CC[C@H]4[C@@H]3CC[C@]21CC`, the mutagenic call (Species/Cell Type: Rabbit, Sex: Male, Assay Type: Sperm morphology, Assay Code: SPR-, Evaluation Type: Evaluation A (Pre-1980)) is “inactive; negative”.

In the case of `CC(C)Nc1cccc2c1C(=O)c1ccccc1C2=O`, the mutagenic call (Species/Cell Type: Salmonella typhimurium (one or more of the five standard strains: TA98, TA100, TA1535, TA1537, and TA1538), Assay Type: Histidine reverse gene mutation, Ames assay, Assay Code: SAL+*, Activation: With metabolic activation, Evaluation Type: Evaluation A (Pre-1980)) was “active; positive”.

Regarding `Oc1cccc2c1cc1ccc3cccc4ccc2c1c34`, the mutagenic call is “inactive; negative” (Species/Cell Type: Chinese hamster lung (V79) cells, Assay Type: Forward gene mutation at the HPRT or ouabain locus, Assay Code: V79-*, Activation: With metabolic activation, Evaluation Type: Evaluation A (Pre-1980)) and “no conclusion” under setting [1]. The call (Species/Cell Type: Nonhuman, Assay Code: CCGT, Evaluation Type: Evaluation A (Pre-1980)) is “no conclusion”.

For the compound `c1ccc(C2CO2)cc1` (stereo unspecified), the mutagenic call was “active; positive” under setting [2]; “active; positive” (Species/Cell Type: Drosophila melanogaster, Assay Type: Sex-linked recessive lethal gene mutation, Assay Code: SRL+, Evaluation Type: Evaluation A (Pre-1980)); “active; positive” (Species/Cell Type: Escherichia coli WP2 UVRA, Assay Type: Tryptophan reverse gene mutation, Assay Code: WPU+D, Dose Response: With dose response, Evaluation Type: Evaluation A (Pre-1980)); “active; positive” (Species/Cell Type: Human diploid fibroblasts, Assay Type: Unscheduled DNA synthesis (UDS) in vitro, DNA effects, Assay Code: UDH+, Evaluation Type: Evaluation A (Pre-1980)); “active; positive” (Species/Cell Type: Human lymphocytes, Assay Type: Micronucleus test in vitro, chromosome aberrations, Assay Code: MN7+, Evaluation Type: Evaluation A (Pre-1980)); “active; positive” under setting [3]. In addition, the mutagenic call was “active; positive” under setting [4]; “no conclusion” (Species/Cell Type: Mammalian polychromatic erythrocytes, Assay Type: Micronucleus test, chromosome aberrations, Assay Code: MNTT, Evaluation Type: Evaluation A (Pre-1980)); “active; positive” (Species/Cell Type: Nonhuman, Assay Type: Sister-chromatid exchange (SCE) in vivo, Assay Code: SC3+, Evaluation Type: Evaluation B (Post-1980)); “active; positive” (Species/Cell Type: Plant, Assay Type: Micronucleus test, chromosome aberrations, Assay Code: MNP+, Evaluation Type: Evaluation A (Pre-1980)); “inactive; negative” (Species/Cell Type: Rodents, Sex: Male, Assay Type: Dominant lethal test, Assay Code: DLT-, Evaluation Type: Evaluation A (Pre-1980)); “active; positive” (Species/Cell Type: Saccharomyces cerevisiae, Assay Type: Forward and reverse gene mutation, mitotic recombination and gene conversion, host-mediated assay, Assay Code: HME+, Evaluation Type: Evaluation A (Pre-1980)). The mutagenic call is “active; positive” (Species/Cell Type: Saccharomyces cerevisiae, Assay Type: Mitotic recombination or gene conversion, Assay Code: YEC+*, Activation: With metabolic activation, Evaluation Type: Evaluation A (Pre-1980)); “active; positive” under setting [6]; “inactive; positive without activation, negative with activation” (Species/Cell Type: Schizosaccharomyces pombe, Assay Type: Forward gene mutation, Assay Code: YEY+/-*, Activation: With metabolic activation, Evaluation Type: Evaluation A (Pre-1980)). Further, the call under setting [5] was “active; positive”.

As to `CN(C)C(=O)Nc1cccc(C(F)(F)F)c1`, the mutagenic call (Species/Cell Type: Saccharomyces cerevisiae, Assay Type: Mitotic recombination or gene conversion, Assay Code: YEC-, Evaluation Type: Evaluation A (Pre-1980)) is “inactive; negative”.

For the compound `CC(C)C[C@H]1C(=O)N2CCC[C@H]2[C@]2(O)O[C@](NC(=O)[C@@H]3C=C4c5cccc6[nH]c(Br)c(c56)C[C@H]4N(C)C3)(C(C)C)C(=O)N12`, the mutagenic call was “no conclusion” (Species/Cell Type: Human lymphocytes, Assay Type: Sister-chromatid exchange (SCE) in vitro, Assay Code: SCLT, Evaluation Type: Evaluation B (Post-1980)); “no conclusion” (Species/Cell Type: Human, Assay Type: Sister-chromatid exchange (SCE) in vitro, Assay Code: SC1T, Evaluation Type: Evaluation B (Post-1980)); “inactive; negative” (Species/Cell Type: Human, Sex: Male, Assay Type: Sperm morphology, Assay Code: SPH-, Evaluation Type: Evaluation A (Pre-1980)).

Regarding `O=C1c2c(O)ccc(Cl)c2C(=O)c2c(O)ccc(Cl)c21`, the mutagenic call under setting [6] was “active; positive”.

`Cc1cc(C)[o+]c(C)c1`: the mutagenic call (Species/Cell Type: Allium cepa, Assay Type: Chromosome aberrations, Assay Code: ALC+, Evaluation Type: Evaluation A (Pre-1980)) was “active; positive”.

On to `C1CCNC1`, for which the mutagenic call (Species/Cell Type: Salmonella typhimurium, Assay Type: Forward and reverse gene mutation, host-mediated assay, Assay Code: HMA-, Evaluation Type: Evaluation A (Pre-1980)) was “inactive; negative”.

Take `O=[N+]([O-])c1ccc(-c2ccccc2)cc1`: the mutagenic call by setting is: (Species/Cell Type: Escherichia coli polA (W3119 vs P3478), Assay Type: Rec-assay, DNA effects (bacterial DNA repair), Assay Code: RE1+, Evaluation Type: Evaluation A (Pre-1980)) “active; positive”; (Species/Cell Type: Neurospora crassa, Assay Type: Aneuploidy, chromosome aberrations, Assay Code: NEN-, Evaluation Type: Evaluation A (Pre-1980)) “inactive; negative”; under setting [7], “active; positive”; under setting [8], “active; positive”; under setting [9], “inactive; negative”; under setting [6], “active; positive”. For the same compound, the mutagenic call is, setting by setting: (Species/Cell Type: Salmonella typhimurium, Assay Type: Forward and reverse gene mutation, host-mediated assay, Assay Code: HMA+, Evaluation Type: Evaluation A (Pre-1980)) “active; positive”; (Species/Cell Type: Syrian hamster embryo (SA7/SHE) cells, Assay Type: Cell transformation, viral enhanced, Assay Code: CT7+, Evaluation Type: Evaluation A (Pre-1980)) “active; positive”; (Species/Cell Type: Syrian hamster embryo (SHE) cells, Assay Type: Cell transformation, clonal assay, Assay Code: CTC+, Evaluation Type: Evaluation A (Pre-1980)) “active; positive”. Also, the call under setting [5] is “active; positive”.

Consider `CC(=O)OC[C@]12CCC(C)=C[C@H]1O[C@@H]1[C@H](O)[C@@H](OC(C)=O)[C@@]2(C)[C@]12CO2`, for which the mutagenic call runs as follows: under setting [9], “inactive; negative”; under setting [1], “no conclusion”.

For the compound `c1cc2ccc3ccc4ccc5cccc6c(c1)c2c3c4c56`, under setting [1], the mutagenic call is “no conclusion”.

As for `COc1cccc2c1C(=O)c1c(O)c3c(c(O)c1C2=O)C[C@@](O)(C(C)=O)C[C@@H]3O[C@H]1C[C@H](N)[C@H](O)[C@H](C)O1`, the mutagenic call by setting is: under setting [2], “active; positive”; (Species/Cell Type: Chinese hamster ovary (CHO) cells, Assay Type: Forward gene mutation at the HPRT locus, Assay Code: CHO+, Evaluation Type: Evaluation B (Post-1980)) “active; positive”; (Species/Cell Type: Glycine max (soybean), Assay Type: Gene mutation, Assay Code: GLMT, Evaluation Type: Evaluation A (Pre-1980)) “no conclusion”; (Species/Cell Type: Human cell culture, Assay Type: Chromosome aberrations in vitro, Assay Code: CYZ+D, Dose Response: With dose response, Evaluation Type: Evaluation A (Pre-1980)) “active; positive”; (Species/Cell Type: Human lymphocytes or leukocytes, Assay Type: Chromosome aberrations in vitro, Assay Code: CY7+, Evaluation Type: Evaluation A (Pre-1980)) “active; positive”; under setting [3], “active; positive”. The mutagenic call is “active; positive” under setting [4]; “active; positive” (Species/Cell Type: Nonhuman bone marrow, Assay Type: Chromosome aberrations, in vivo, Assay Code: CY#+, Evaluation Type: Evaluation A (Pre-1980)); “active; positive” (Species/Cell Type: Nonhuman lymphocytes or leukocytes, Assay Type: Chromosome aberrations in vivo, Assay Code: CY%+, Evaluation Type: Evaluation A (Pre-1980)); “active; positive” under setting [7]; “active; positive” under setting [8]; “active; positive” under setting [6]. The mutagenic call (Species/Cell Type: Vicia faba, Assay Type: Chromosome aberrations, Assay Code: VIC+D, Dose Response: With dose response, Evaluation Type: Evaluation A (Pre-1980)) was “active; positive”. Moreover, the call (Species/Cell Type: Nonhuman, Assay Code: CCG+, Evaluation Type: Evaluation A (Pre-1980)) was “active; positive”.

`N#Cc1cc(I)c(O)c([N+](=O)[O-])c1`: the mutagenic call (Species/Cell Type: Mammalian polychromatic erythrocytes, Assay Type: Micronucleus test, chromosome aberrations, Assay Code: MNTT, Evaluation Type: Evaluation B (Post-1980)) is recorded as “no conclusion”.

Regarding `[Cl][La]([Cl])[Cl]`, the mutagenic call (Species/Cell Type: Bacillus subtilis (H17 vs M45), Assay Type: Rec-assay, spot test, DNA effects (bacterial DNA repair), Assay Code: REW-, Evaluation Type: Evaluation A (Pre-1980)) is “inactive; negative”.

On to `O=[N+]([O-])c1c(O)ccc2ccccc12`, for which the mutagenic call under setting [6] is “active; positive”.
